Measured values as given in patent US5750321A, “Process for buffering concentrated aqueous slurries” (priority 1997, dated 1998).
Entries after “also recorded” stand apart in the source; their conditions may differ. Like-named read-outs stand apart in the source and are kept apart here. One block for each molecule: values may come before it.

Key:
[1] = Electroacoustic sonic amplitude (ESA) electrokinetics of dye slurries as a function of pH; format: physicochemical
[2] = Table 1; cited from earlier work
[3] = Buffering of S1 slurry: pH measured after additions of aqueous buffering salt; format: physicochemical; settings: small additions of 0.1 mole/L salt to S1 slurry
[4] = Langmuir 8, 291 (1992), cited from earlier work
[5] = FD2 slurry without surfactant, Texter

lowest apparent pKa relative to FD2 ([1]; FD1 slurries compared with FD2): three pH units lower | lowest apparent pKa ([1]; FD1 slurries without dispersing aid, FIG. 2): about 2 | solubility of the dye with increasing pH ([1]; above pH 5, upturn in ESA): marked increased solubility | intrinsic electrokinetic charge ([1]; sign of charge, ESA): negative
SMILES: CC1=NN(c2ccc(C(=O)O)cc2)C(=O)C1=CC=Cc1c(C)nn(-c2ccc(C(=O)O)cc2)c1O [FD1]

SMILES: O=S1(=O)CCCCN1
pKa at 25° C. [2]: 12.02

SMILES: O=C(O)c1ccco1 [Furoic acid]
pKa at 25° C. [2]: 3.17

SMILES: O=C(O)c1ccccc1 [sodium benzoate]
effect on slurry pH / pH control (in words) [3]: very effective at providing significant pH control at relatively low concentrations

SMILES: CC1=NN(c2ccc(C(=O)O)cc2)C(=O)C1=Cc1c(C)nn(-c2ccc(C(=O)O)cc2)c1O [FD2]
pH interval of abrupt S-shaped ESA transition [4, 5]: 4-6 pH | predominately carboxy group-based surface pKa [4, 5]: about 5.0 | intrinsic electrokinetic charge ([4]; sign of charge, shown earlier by Texter): negative

SMILES: CC(=O)O [sodium acetate]
effect on slurry pH / pH control (in words) [3]: increases the slurry pH to a significant extent; also recorded: significantly increases the slurry pH

SMILES: O=C([O-])c1ccccc1O.[Na+] [sodium salicylate]
effect on slurry pH / pH control (in words) [3]: provides some pH control
